Measurements: ChEMBL document CHEMBL5614396, “Structure-Activity Relationship Studies in Benzothiadiazoles as Novel Vaccine Adjuvants” (J Med Chem, 2024)

Experiments:
[1] = tested on: BMDC; experiment: Vaccine adjuvant activity in Balb/c mouse BMDC assessed as increase in IL-12 production at 10 uM incubated for 20 hrs by ELISA (reference value: 1.35 +/-0.1 ng/ml); assay type: functional
[2] = tested on: THP-1; experiment: Vaccine adjuvant activity in human THP-1 cells expressing CD63-Turbo-luciferase and CD9-Emerald green fluorescent protein reporter assessed as extracellular vesicle release by measuring reporter activation at 10 uM incubated for 48 hrs by TurboLuc luciferase based chemiluminescence assay (reference value: 0%); assay type: functional
[3] = tested on: BMDC; experiment: Vaccine adjuvant activity in Balb/c mouse BMDC assessed as induction of Ca2+ influx at 10 uM by Fura-2/8-AM dye based fluorescence analysis (reference value: 0%); assay type: functional
[4] = Cytotoxicity against Balb/c mouse BMDC assessed as cell viability at 10 uM incubated for 20 hrs by MTT assay (reference value: 100 +/-0.6%); assay type: toxicity, cell-based; conditions: BMDC (bone marrow-derived dendritic cells), read-out: Activity

Row | SMILES | Activity [1] [ng/mL] | Activity [2] [%] | Activity [3] [%] | viability at 20 h, 10 µM [4] [%]
1 | CCOC(=O)c1c(NS(=O)(=O)c2cccc3nsnc23)sc(-c2ccoc2)c1C | 1.18 | 114.4 | 94.7 | 82.8
2 | CCCCCCOC(=O)c1c(NS(=O)(=O)c2cccc3nsnc23)sc(C)c1C | 3.44 | 185.3 | 245 | 106
3 | Cc1sc(NS(=O)(=O)c2cccc3nsnc23)c(C(=O)O)c1C | 1.43 | -1.3 | -31.3 | 105
4 | CCOC(=O)c1ccsc1NS(=O)(=O)c1cccc2nsnc12 | 0.48 | 60.9 | 58.3 | 72.5
5 | CCOC(=O)c1c(NS(=O)(=O)c2cccc3cccnc23)sc(C)c1C | 2 | 60.4 | 99.7 | 110
6 | CCOC(=O)c1c(NS(=O)(=O)c2cccc3nsnc23)sc2ccccc12 | 1.11 | 98.3 | 97 | 99.1
7 | CCOC(=O)c1c(NS(=O)(=O)c2cccc3nsnc23)sc(C)c1-c1ccccc1 | 1.45 | 49.6 | 69.1 | 94.2
8 | COC(=O)c1c(NS(=O)(=O)c2cccc3nsnc23)sc(C)c1C | 1.75 | 30.1 | 83.6 | 114
9 | CCOC(=O)c1cc(C)ccc1NS(=O)(=O)c1cccc2nsnc12 | 1.22 | 10.8 | -11.5 | 60.1
10 | CCOC(=O)c1c(NS(=O)(=O)c2cccc3nsnc23)sc(C)c1CC | 2.27 | 112 | 117.6 | 100
11 | CCOC(=O)c1ncsc1NS(=O)(=O)c1cccc2nsnc12 | 1.04 | 1.3 | -6.4 | 91.3
12 | Cc1sc(NS(=O)(=O)c2cccc3nsnc23)c(C(=O)OCc2ccccc2)c1C | 2.74 | 169.9 | 175.5 | 128
13 | CCOC(=O)c1c(NS(=O)(=O)c2cccc3nsnc23)sc2c1CCC2 | 1.85 | 94.9 | 121 | 127
14 | Cc1sc(NS(=O)(=O)c2cccc3nsnc23)c(C(=O)OCCCCCNC(=O)OC(C)(C)C)c1C | 4.14 | 111.5 | 103.9 | 183
15 | Cc1sc(NS(=O)(=O)c2cccc3nsnc23)c(C(=O)OC(C)C)c1C | 3 | 149.2 | 178.4 | 132
16 | CCOC(=O)c1nc(C)sc1NS(=O)(=O)c1cccc2nsnc12 | 0.92 | 1.7 | -7.9 | 93.3
17 | CCOC(=O)c1c(NS(=O)(=O)c2cccc3nsnc23)sc2c1CCCC2 | 1.83 | 156.9 | 102.1 | 114
18 | CCOC(=O)c1c(NS(=O)(=O)c2ccc3nsnc3c2)sc(C)c1C | 0.63 | 0.2 | -12.7 | 93.1
19 | CCOC(=O)c1c(NS(=O)(=O)c2cccc3nsnc23)sc(-c2ccco2)c1C | 2.56 | 67.1 | 134.2 | 98.7
20 | CCOC(=O)c1c(NS(=O)(=O)c2cccc3nsnc23)sc(-c2cccs2)c1C | 1.03 | 17.9 | 100.6 | 77
21 | CCOC(=O)c1c(NS(=O)(=O)c2cccc3nsnc23)sc2c1CCN(CC)C2 | 1.84 | 1.3 | -10.8 | 108
22 | CCOC(=O)c1c(NS(=O)(=O)c2ccc(Br)c3ccncc23)sc(C)c1C | 1.12 | 16.1 | -9.4 | 82.7
23 | CCCOC(=O)c1c(NS(=O)(=O)c2cccc3nsnc23)sc(C)c1C | 3.5 | 156.3 | 147.4 | 140
24 | Cc1sc(NS(=O)(=O)c2cccc3nsnc23)c(C(=O)Oc2ccccc2)c1C | 1.58 | 39.8 | 85.3 | 107
25 | CCOC(=O)c1c(NS(=O)(=O)c2cccc(N)c2N)sc(C)c1C | 1.39 | 2.4 | -6.8 | 107

Row | SMILES | Activity [1] [ng/mL] | Activity [2] [%] | Activity [3] [%] | viability at 20 h, 10 µM [4] [%]
26 | CCOC(=O)c1c(N(C)S(=O)(=O)c2cccc3nsnc23)sc(C)c1C | 1.19 | -2 | -39.3 | 108
27 | CCOC(=O)c1c(NS(=O)(=O)c2cccc3nonc23)sc(C)c1C | 1.47 | 4.7 | -12.5 | 105
28 | CCOC(=O)c1c(NS(=O)(=O)c2cccc3nsnc23)sc(-c2ccccn2)c1C | 1.01 | 30.5 | 8.1 | 68.1
29 | CCOC(=O)c1c(C)csc1NS(=O)(=O)c1cccc2nsnc12 | 1.12 | 99 | 76.7 | 100
30 | CCOC(=O)c1c(NS(=O)(=O)c2cccc3c2NCCN3)sc(C)c1C | 1.06 | 2.7 | 2 | 89.3
31 | Cc1cc(NS(=O)(=O)c2cccc3nsnc23)sc1C | 1.4 | -0.9 | -11.4 | 113
32 | Cc1sc(NS(=O)(=O)c2cccc3nsnc23)c(C(=O)OCCC(C)C)c1C | 2.87 | 141.6 | 262.4 | 81.2
33 | Cc1sc(NS(=O)(=O)c2cccc3nsnc23)c(C(=O)OCCCCCN)c1C | 1.43 | 0.7 | -2.6 | 103
34 | CCOC(=O)c1c(NS(=O)(=O)c2ccc(Br)c3nsnc23)sc(C)c1C | 1.9 | 70.3 | 73.6 | 96.3
35 | CCOC(=O)c1cc(C)sc1NS(=O)(=O)c1cccc2nsnc12 | 0.81 | 106.9 | 78.5 | 93
36 | CCNC(=O)c1c(NS(=O)(=O)c2cccc3nsnc23)sc(C)c1C | 1.7 | -0.6 | -28.3 | 100
37 | CCOC(=O)c1c(NS(=O)(=O)c2cccc3nc(C)[nH]c23)sc(C)c1C | 1.42 | 3.4 | -13.1 | 108
38 | CCOC(=O)c1c(NS(=O)(=O)c2cccc3nc[nH]c23)sc(C)c1C | 1.51 | 2 | -14.2 | 111
39 | CCOC(=O)c1c(NS(=O)(=O)c2cccc3nsnc23)sc2c1CCN(C(=O)OC(C)(C)C)C2 | 2.27 | 100.4 | 79.2 | 104
40 | CCOC(=O)c1c(NS(=O)(=O)c2cccc3ccncc23)sc(C)c1C | 1.12 | 3.6 | 4.1 | 87.5
41 | CCOC(=O)c1c(C)cccc1NS(=O)(=O)c1cccc2nsnc12 | 1.14 | 1 | -14.2 | 88.8
42 | CCc1noc(-c2c(NS(=O)(=O)c3cccc4nsnc34)sc(C)c2C)n1 | 1.71 | 0.4 | -3.1 | 65.9
43 | Cc1sc(NS(=O)(=O)c2cccc3nsnc23)c(C(=O)OC(C)(C)C)c1C | 3.17 | 128.8 | 136.7 | 118
44 | CCOC(=O)c1c(NS(=O)(=O)c2cccc3nsnc23)sc(Br)c1C | 1.03 | 81.1 | 102.9 | 104
45 | CCOC(=O)c1c(NS(=O)(=O)c2cccc3nsnc23)sc(-c2cccnc2)c1C | 1.05 | 75.3 | 11.8 | 85.5
46 | CCOC(=O)c1c(NS(=O)(=O)c2cccc3ncccc23)sc(C)c1C | 1.1 | 0 | -13.3 | 117
47 | CCOC(=O)c1c(NS(=O)(=O)c2cccc3nc(O)[nH]c23)sc(C)c1C | 0.59 | 0.4 | -14.3 | 88.1
48 | CCOC(=O)c1sc(C)c(C)c1NS(=O)(=O)c1cccc2nsnc12 | 1.67 | 154.1 | 74.2 | 130
49 | CCOC(=O)c1c(NS(=O)(=O)c2cccc3nn[nH]c23)sc(C)c1C | 2.11 | -0.7 | -9.6 | 102
